The source made the active and inactive calls. The calls are words filed in the database; no cut-off is given here.
Legend:
[1] = tested on: A-375; assay: Induction of apoptosis in human A375 cells with USP5 and p53 knock down assessed as increase in FAS protein expression; type: functional, cell-based
[2] = tested on: A-375; assay: Induction of FAS protein expression in Vemurafenib resistant human A375 cells; type: functional, cell-based
[3] = tested on: SK-MEL19; assay: Induction of apoptosis in human SK-MEL-19 cells assessed as increase in caspase 8 cleavage after 48 to 72 hrs; type: functional, cell-based
[4] = tested on: SK-MEL19; assay: Induction of apoptosis in human SK-MEL-19 cells assessed as increase in Bid protein level after 48 to 72 hrs; type: functional, cell-based
[5] = tested on: SK-MEL19; assay: Increase in FASBax protein expression in human SK-MEL-19 cells after 24 hrs; type: functional, cell-based
[6] = tested on: A-375; assay: Ratio of IC50 for human A375 cells with USP5 knock down to IC50 for human A375 cells; type: functional
[7] = tested on: SK-MEL19; assay: Increase in FAS protein expression in human SK-MEL-19 cells after 24 hrs; type: functional, cell-based
[8] = tested on: A-375; assay: Induction of apoptosis in human A375 cells with USP5 knock down by annexin V staining based flow cytometry; type: functional
[9] = tested on: A-375; assay: Induction of apoptosis in human A375 cells with USP5 knock down assessed as increase in PARP cleavage; type: functional, cell-based
[10] = tested on: A-375; assay: Induction of apoptosis in human A375 cells with USP5 knock down assessed as increase in Bax protein expression; type: functional, cell-based
[11] = tested on: A-375; assay: Induction of apoptosis in human A375 cells with USP5 and p53 knock down assessed as increase in PARP cleavage; type: functional, cell-based
[12] = tested on: A-375; assay: Induction of apoptosis in human A375 cells with USP5 and p53 knock down assessed as increase in p53 protein expression; type: functional, cell-based
[13] = tested on: SK-MEL19; assay: Induction of apoptosis in human SK-MEL-19 cells assessed as increase in PARP cleavage after 48 to 72 hrs; type: functional, cell-based
[14] = tested on: A-375; assay: Induction of apoptosis in human A375 cells with USP5 knock down assessed as increase in Bid protein expression; type: functional, cell-based
[15] = tested on: SK-MEL19; assay: Reduction in DRS levels in human SK-MEL-19 cells; type: functional, cell-based
[16] = tested on: A-375; assay: Induction of apoptosis in human A375 cells with USP5 knock down assessed as increase in FAS protein expression; type: functional, cell-based
[17] = tested on: A-375; assay: Induction of apoptosis in human A375 cells with USP5 knock down assessed as increase in p53 protein expression; type: functional, cell-based
[18] = tested on: A-375; assay: Induction of apoptosis in human A375 cells with USP5 and p53 knock down assessed as increase in Bid protein expression; type: functional, cell-based
[19] = tested on: SK-MEL19; assay: Increase in protein ubiquitination in human SK-MEL-19 cells after 24 hrs; type: functional, cell-based
[20] = tested on: A-375; assay: Induction of apoptosis in human A375 cells with USP5 and p53 knock down assessed as increase in Bax protein expression; type: functional, cell-based
[21] = Half life in ip dosed Balb/c mouse by LC-MS analysis; type: ADME, organism-based; conditions: in vivo
[22] = AUClast in Balb/c mouse at 5 mg/kg, iv by LC-MS analysis; type: ADME, organism-based; design: dose 5 mg/kg, time 0 - last, route intravenous; conditions: in vivo
[23] = Plasma concentration in Balb/c mouse at 5 mg/kg, iv after 4 hrs by LC-MS analysis; type: ADME, organism-based
[24] = AUClast in Balb/c mouse at 10 mg/kg, po by LC-MS analysis; type: ADME, organism-based; design: dose 10 mg/kg, route oral, time 0 - last; conditions: in vivo
[25] = Plasma concentration in Balb/c mouse at 10 mg/kg, po after 7 hrs by LC-MS analysis; type: ADME, organism-based
[26] = Plasma concentration in Balb/c mouse at 10 mg/kg, po after 4 hrs by LC-MS analysis; type: ADME, organism-based
[27] = Plasma concentration in Balb/c mouse at 5 mg/kg, iv after 7 hrs by LC-MS analysis; type: ADME, organism-based
[28] = Plasma concentration in Balb/c mouse at 5 mg/kg, iv after 2 hrs by LC-MS analysis; type: ADME, organism-based
[29] = Plasma concentration in Balb/c mouse at 10 mg/kg, po after 2 hrs by LC-MS analysis; type: ADME, organism-based
[30] = Plasma concentration in Balb/c mouse at 10 mg/kg, po after 0.5 hrs by LC-MS analysis; type: ADME, organism-based
[31] = Plasma concentration in Balb/c mouse at 5 mg/kg, iv after 0.5 hrs by LC-MS analysis; type: ADME, organism-based

CCCS(=O)(=O)Nc1ccc(F)c(C(=O)c2c[nH]c3ncc(-c4ccc(Cl)cc4)cc23)c1F [VEMURAFENIB]
Activity [1]: inactive
Activity [2]: inactive
Activity [3]: Active
Activity [4]: Active
Activity [5]: Active
Ratio IC50 [6]: 2
Activity [7]: Active
fold change (FC) [8]: >3
Activity [9]: Active
Activity [10]: Active
Activity [11]: inactive
Activity [12]: inactive
Activity [13]: Active
Activity [14]: Active
Activity [15]: Active
Activity [16]: Active
Activity [17]: Active
Activity [18]: inactive
Activity [19]: Active
Activity [20]: inactive

CCCC(NC(=O)/C(C#N)=C/c1ccc2cccnc2n1)c1ccccc1 (stereo unspecified)
half-life [21]: 30 to 60 min
AUC(0-t) [22]: 692 to 993 ng·h/mL
concentration at 4 h [23]: 33.4 to 63.1 ng/mL
AUC(0-t) [24]: 126 to 280 ng·h/mL
concentration at 7 h [25]: 11.4 to 15.9 ng/mL
concentration at 4 h [26]: 13.3 to 30 ng/mL
concentration at 7 h [27]: 33.7 to 71.4 ng/mL
concentration at 2 h [28]: 79.6 to 99.1 ng/mL
concentration at 2 h [29]: 10.6 to 40.6 ng/mL
concentration at 0.5 h [30]: 50.8 to 117 ng/mL
concentration at 0.5 h [31]: 301 to 397 ng/mL
